Data published in article PMC6629894, “Ruthenium Complexes Containing Heterocyclic Thioamidates Trigger Caspase-Mediated Apoptosis Through MAPK Signaling in Human Hepatocellular Carcinoma Cells” (Frontiers in Oncology, 2019).
pIC50: −log10 of the molar value.

Tests used:
[1] = system: HCT116 (human colon carcinoma); test: Alamar blue cytotoxicity assay, 72 h; assay type: cell-based
Excerpt: (§1) The cell lines HepG2 (human hepatocellular carcinoma), HL-60 (human promyelocytic leukemia), K-562 (human chronic myelogenous leukemia), B16-F10 (mouse melanoma), MCF-7 (human breast carcinoma), HCT116 (human colon carcinoma), HSC-3 (human oral squamous cell carcinoma), SCC-4 (human oral squamous cell carcinoma), MRC-5 (human lung fibroblast), WT SV40 MEF (wild-type immortalized mouse embryonic fibroblast), and BAD KO SV40 MEF (BAD gene knockout immortalized mouse embryonic fibroblasts) were obtained from the American Type Culture Collection (ATCC, Manassas, VA, USA). Cells were cultured in RPMI 1640 medium (Gibco-BRL, Gaithersburg, MD, USA) with 10% fetal bovine serum (Life, Carlsbad, CA, USA), 2 mM L-glutamine (Vetec Química Fina, Duque de Caxias, RJ, Brazil) and 50 μg/mL gentamycin (Life). For all experiments, adherent cells were collected by treatment with 0.25% trypsin-EDTA solution (Gibco-BRL). All cell lines were cultured in flasks at 37°C in 5% CO2 and were subcultured every 3–4 days to maintain exponential growth. All cell lines were tested for mycoplasma using a mycoplasma staining kit (Sigma-Aldrich Co.) to validate that the cells that were used were free from contamination.
(§2) Cytotoxicity was measured colorimetrically using an Alamar blue method that was performed as previously described ([20], [21]). Cells were seeded in 96-well plates for all experiments (7 × 10^4 cells/mL for adherent cells or 3 × 10^5 cells/mL for suspension cells in 100 μL of medium) and incubated overnight at 37°C with 5% CO2 to allow for adherence. The complexes were dissolved in 0.5% dimethyl sulfoxide (DMSO, Vetec Química Fina) at eight different concentrations from 0.19 to 25 μg/mL and were added to each well and incubated for 72 h. The negative control was treated with the vehicle (0.5% DMSO) that was used to solubilize and dilute the complexes. […] Four (for cell lines) or 24 h (for PBMCs) before the end of incubation, 20 μL of a stock solution (0.312 mg/mL) of resazurin (Sigma-Aldrich Co.) was added to each well. Absorbance was measured at 570 and 600 nm using a SpectraMax 190 Microplate Reader (Molecular Devices, Sunnyvale, CA, USA).

[2] = system: HL-60 (human promyelocytic leukemia); test: Alamar blue cytotoxicity assay, 72 h; assay type: cell-based
Excerpt: as §1, §2

[3] = system: HSC-3 (human oral squamous cell carcinoma); test: Alamar blue cytotoxicity assay, 72 h; assay type: cell-based
Excerpt: as §1, §2

[4] = system: MCF-7 (human breast carcinoma); test: Alamar blue cytotoxicity assay, 72 h; assay type: cell-based
Excerpt: as §1, §2

[5] = system: SCC-4 (human oral squamous cell carcinoma); test: Alamar blue cytotoxicity assay, 72 h; assay type: cell-based
Excerpt: as §1, §2

[6] = system: calf thymus DNA (ctDNA); test: DNA interaction assay (ethidium bromide displacement); assay type: binding
Experimental: DNA interaction was measured in a cell-free system as previously described ([22]). In this assay, the ability of the complexes to translocate ethidium bromide, a DNA intercalator, from calf thymus DNA (ctDNA, Sigma-Aldrich Co.) was examined. […] […] After a 15 min incubation at room temperature, fluorescence was measured using the excitation and emission wavelengths of 320 and 600 nm, respectively, using a Spectramax Microplate Reader (Molecular Devices).

[7] = system: cancer cells with different histological types; test: Cytotoxicity, summary over the panel of cancer cells; assay type: cell-based; conditions: read-out: IC50 values against cancer cells (summary)
Experimental: as §2

[8] = system: human topoisomerase IB; set-up: method as in PMID 26795676; conditions: ref [18], [19]; cited from earlier work
[9] = system: ERK1/2 (pT202/pY204); test: Phosflow analysis of phosphorylated MAPK; assay type: cell-based, human; conditions: HepG2, 10 μM, 15 min
Experimental: (§3) Phosphorylated extracellular signal-regulated kinase (ERK), JNK/SAPK and p38 MAPK were quantified by flow cytometry as previously described ([26]). The cells were collected and resuspended in 0.5–1 mL of 4% formaldehyde and fixed for 10 min at 37°C. Then, the tubes were chilled on ice for 1 min. The cells were permeabilized by slowly adding ice-cold 100% methanol to the cooled cells while gently vortexing to a final concentration of 90% methanol and incubating for 30 min on ice. After washing with incubation buffer (0.5% bovine serum albumin in PBS), PE mouse anti-JNK/SAPK (pT183/pY185) (ID 562480), PE mouse anti-p38 MAPK (pT180/pY182) (ID 612565), PE mouse anti-ERK1/2 (pT202/pY204) (ID 612566) or PE mouse IgG1,κ isotype control (ID 555749) antibodies, all from BD Biosciences, were added and incubated for 1 h at room temperature. Finally, the cells were washed with PBS, and the cell fluorescence was measured by flow cytometry.
(§4) For all flow cytometry analyses, at least 10^4 events were recorded per sample using a BD LSRFortessa cytometer, BD FACSDiva Software (BD Biosciences) and FlowJo Software 10 (FlowJo Lcc; Ashland, OR, USA). Cellular debris was omitted from the analysis.

[10] = system: JNK/SAPK (pT183/pY185); test: Phosflow analysis of phosphorylated MAPK; assay type: cell-based, human; conditions: HepG2, 10 μM
Experimental: as §3, §4

[11] = system: p38 MAPK (pT180/pY182); test: Phosflow analysis of phosphorylated MAPK; assay type: cell-based, human; conditions: HepG2, 10 μM
Experimental: as §3, §4

[12] = system: HepG2 cells; test: DNA content: internucleosomal DNA fragmentation and cell cycle distribution by flow cytometry; assay type: cell-based, human; conditions: 24 and 48 h
Experimental: (§5) For all subsequent in vitro experiments, 2 mL of a suspension of HepG2 cells were seeded (7 × 10^4 cells/mL) and incubated in a 24-well plate overnight to allow the cells to adhere to the plate surface.
In this assay, cells were harvested in a permeabilization solution containing 0.1% Triton X-100, 2 μg/mL propidium iodide, 0.1% sodium citrate and 100 μg/mL RNAse (all from Sigma-Aldrich Co.) and incubated in the dark for 15 min at room temperature.
as §4

[13] = system: HepG2 cells; test: Cell morphology: May-Grunwald-Giemsa staining and light scattering; assay type: cell-based, human; conditions: 24 and 48 h
Experimental: as §5
To evaluate alterations in the morphology, cells were cultured on a coverslip and stained with May-Grunwald-Giemsa. Morphological changes were examined by light microscopy (Olympus BX41) using Image-Pro software (Media Cybernetics).

SMILES	Selectivity index (SI = IC50 [noncancerous cells]/IC50 [cancer cells]) ([1]; MRC-5 vs HCT116)	Selectivity index (SI = IC50 [noncancerous cells]/IC50 [cancer cells]) ([1]; PBMCs vs HCT116)	Selectivity index (SI = IC50 [noncancerous cells]/IC50 [cancer cells]) ([2]; MRC-5 vs HL-60)	Selectivity index (SI = IC50 [noncancerous cells]/IC50 [cancer cells]) ([2]; PBMCs vs HL-60)	Selectivity index (SI = IC50 [noncancerous cells]/IC50 [cancer cells]) ([3]; MRC-5 vs HSC-3)	Selectivity index (SI = IC50 [noncancerous cells]/IC50 [cancer cells]) ([3]; PBMCs vs HSC-3)	Selectivity index (SI = IC50 [noncancerous cells]/IC50 [cancer cells]) ([4]; MRC-5 vs MCF-7)	Selectivity index (SI = IC50 [noncancerous cells]/IC50 [cancer cells]) ([4]; PBMCs vs MCF-7)	Selectivity index (SI = IC50 [noncancerous cells]/IC50 [cancer cells]) ([5]; MRC-5 vs SCC-4)	Selectivity index (SI = IC50 [noncancerous cells]/IC50 [cancer cells]) ([5]; PBMCs vs SCC-4)	reduction of the fluorescence intensity (ethidium bromide-ctDNA) vs negative control ([6]; 5 μM)	reduction of the fluorescence intensity (ethidium bromide-ctDNA) vs negative control ([6]; 10 μM)	reduction of the fluorescence intensity (ethidium bromide-ctDNA) vs negative control ([6]; 20 μM)	pIC50 [7]	supercoiled DNA relaxation mediated by human topoisomerase IB [8]	further results
F[P-](F)(F)(F)(F)F.[Ru+2].[S-]C1=NCCS1.c1ccc(-c2ccccn2)nc1.c1ccc(P(CCCCP(c2ccccc2)c2ccccc2)c2ccccc2)cc1 [Complex 2, [Ru(tzdt)(bipy)(dppb)]PF6]	0.6	1.0	1.5	2.4	0.7	1.2	0.2	0.4	0.4	0.7	36.9%	42.9%	45.4%	> 5.00	inhibit the supercoiled DNA relaxation	pIC50 ([4]; read-out: IC50 and 95% CI, MCF-7, 72 h): 5.14
Cn1ccnc1[S-].F[P-](F)(F)(F)(F)F.[Ru+2].c1ccc(-c2ccccn2)nc1.c1ccc(P(CCCCP(c2ccccc2)c2ccccc2)c2ccccc2)cc1 [Complex 1, [Ru(mmi)(bipy)(dppb)]PF6]											41.6%	34.0%	30.4%	> 5.00	inhibit the supercoiled DNA relaxation	phosphorylation of ERK1/2 [9]: induced the phosphorylation of ERK1/2; phosphorylation of JNK/SAPK [10]: no significant increase; phosphorylation of p38 MAPK [11]: no significant increase
COc1cccc2c1C(=O)c1c(O)c3c(c(O)c1C2=O)C[C@@](O)(C(=O)CO)C[C@@H]3O[C@H]1C[C@H](N)[C@H](O)[C@H](C)O1 [Doxorubicin, reference compound]	1.3	8.3	2.0	12.5	0.8	5.0	1.0	6.3	0.1	0.6			89.0%			pIC50 ([5]; Homo sapiens, SCC-4, 72 h, read-out: IC50 and 95% CI): 5.40; cell cycle distribution ([12]; 2 μM): cell cycle arrest at the G2/M phase; internucleosomal DNA fragmentation (sub-G0/G1) [12]: DNA fragmentation; cell morphology [13]: apoptosis-related morphological alterations
